Calls of active or inactive are those of the source.
Columns and labels:
[1] = molecular target: T1, Short transient receptor potential channel 4 (Mus musculus, UniProt Q9QUQ5); assay: calcium entry via TRPC4 opening agents – cell-based, HEK293 TRPC4/mu-opioid, Fluo-4 calcium, dose response (AID 434937); format: functional
T1 sequence (Q9QUQ5 whole entry): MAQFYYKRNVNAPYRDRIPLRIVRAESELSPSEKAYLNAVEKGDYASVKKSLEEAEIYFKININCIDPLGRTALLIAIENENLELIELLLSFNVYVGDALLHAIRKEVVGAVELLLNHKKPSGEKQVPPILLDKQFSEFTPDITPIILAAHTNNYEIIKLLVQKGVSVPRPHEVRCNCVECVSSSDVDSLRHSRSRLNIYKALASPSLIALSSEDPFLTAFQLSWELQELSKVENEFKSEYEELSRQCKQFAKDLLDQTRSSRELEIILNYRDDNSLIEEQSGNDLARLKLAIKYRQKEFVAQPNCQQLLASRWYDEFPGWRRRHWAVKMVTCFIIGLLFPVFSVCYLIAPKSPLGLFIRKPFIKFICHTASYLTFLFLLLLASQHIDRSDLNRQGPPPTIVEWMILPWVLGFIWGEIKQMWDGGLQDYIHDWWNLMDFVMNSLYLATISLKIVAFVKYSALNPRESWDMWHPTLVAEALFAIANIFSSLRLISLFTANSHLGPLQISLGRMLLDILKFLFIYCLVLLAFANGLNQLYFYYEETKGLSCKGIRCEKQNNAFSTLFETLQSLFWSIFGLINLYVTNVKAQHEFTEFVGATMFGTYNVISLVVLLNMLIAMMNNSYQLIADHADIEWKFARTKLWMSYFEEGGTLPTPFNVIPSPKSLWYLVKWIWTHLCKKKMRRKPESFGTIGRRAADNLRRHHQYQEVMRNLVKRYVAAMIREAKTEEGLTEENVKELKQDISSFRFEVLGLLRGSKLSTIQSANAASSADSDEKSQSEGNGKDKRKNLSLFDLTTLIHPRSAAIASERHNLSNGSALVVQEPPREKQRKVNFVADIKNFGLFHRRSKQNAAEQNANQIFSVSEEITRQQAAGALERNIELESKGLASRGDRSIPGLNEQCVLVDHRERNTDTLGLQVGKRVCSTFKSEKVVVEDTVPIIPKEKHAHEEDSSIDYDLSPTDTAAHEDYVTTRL

[2] = molecular target: Eukaryotic translation initiation factor 4E (Mus musculus, UniProt P63073); assay: blockers of eIF4G binding by eIF4E – biochemical, TR-FRET, dose response (AID 855); format: functional;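 further: potency for disrupting eIF4E binding to eIF4GI seen as loss of FRET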
Chain of Eukaryotic translation initiation factor 4E (P63073 whole entry, the tested form may be a part): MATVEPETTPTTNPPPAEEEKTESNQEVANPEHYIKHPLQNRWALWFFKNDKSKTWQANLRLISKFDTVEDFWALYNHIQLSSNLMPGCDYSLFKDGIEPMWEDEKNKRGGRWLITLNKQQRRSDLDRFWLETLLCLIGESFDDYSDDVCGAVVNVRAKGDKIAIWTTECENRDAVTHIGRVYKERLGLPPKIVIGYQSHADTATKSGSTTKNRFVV

[3] = blockers of HIV-1 ZM109 envelope-driven cell-cell fusion – HeLa effector, CEM target cells, luciferase, cherry-pick, dose response (AID 652058); format: functional, cell-based;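 further: luciferase signal from HIV-1 Env mediated cell-cell fusion of effector and target cells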
[4] = off-target signal loss in HeLa-CEM21 co-culture – HeLa F-luc CTL cells, cherry-picked, counter-screen for HIV-1 Env fusion inhibitor project, dose response (AID 652040); format: functional, cell-based;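 further: potency for signal decrease marking cytotoxic or nonspecific inhibition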
[5] = blockers of HIV-1 envelope-mediated cell-cell fusion – cherry-pick, dose response (AID 652057); format: functional, cell-based
[6] = HIV-1 AD8 envelope cell-cell fusion blockers – cherry-pick, dose response (AID 652062); format: functional, cell-based;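 further: luciferase signal from cell-cell fusion driven by HIV-1 clade B AD8 Env; potency is for inhibitors of fusion seen as a drop in luminescence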
Kallikrein-7 = Kallikrein-7 (Homo sapiens, UniProt P49862); assay: Fluorescence Intensity-based biochemical primary high throughput dose response assay to identify activators of kallikrein-7 (K7) zymogen.
Chain of Kallikrein-7 (P49862 whole entry): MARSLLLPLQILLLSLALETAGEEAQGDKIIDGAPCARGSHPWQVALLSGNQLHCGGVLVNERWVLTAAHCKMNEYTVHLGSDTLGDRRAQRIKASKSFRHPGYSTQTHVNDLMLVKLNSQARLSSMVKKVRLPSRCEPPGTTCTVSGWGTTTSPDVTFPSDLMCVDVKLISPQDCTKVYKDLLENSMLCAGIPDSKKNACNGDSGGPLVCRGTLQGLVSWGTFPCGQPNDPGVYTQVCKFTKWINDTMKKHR

Cytochrome P450 3A4 [7] = molecular target: T2, Cytochrome P450 3A4 (Homo sapiens, UniProt P08684); details: Potency
T2 sequence (P08684 whole entry): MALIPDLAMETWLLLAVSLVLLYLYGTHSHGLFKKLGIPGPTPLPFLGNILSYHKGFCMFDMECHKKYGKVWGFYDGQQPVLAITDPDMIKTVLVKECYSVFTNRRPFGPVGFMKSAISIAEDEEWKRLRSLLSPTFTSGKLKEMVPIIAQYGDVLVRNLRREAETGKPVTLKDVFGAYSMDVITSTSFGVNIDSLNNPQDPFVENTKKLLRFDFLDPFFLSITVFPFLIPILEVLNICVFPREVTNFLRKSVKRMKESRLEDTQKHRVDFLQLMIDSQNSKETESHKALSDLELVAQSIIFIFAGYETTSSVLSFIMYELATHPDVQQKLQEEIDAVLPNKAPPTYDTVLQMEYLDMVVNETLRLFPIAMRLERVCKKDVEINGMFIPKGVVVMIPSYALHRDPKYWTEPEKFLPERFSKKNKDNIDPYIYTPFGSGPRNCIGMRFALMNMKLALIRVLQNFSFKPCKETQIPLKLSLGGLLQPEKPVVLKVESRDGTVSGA

[8] = molecular target: T3, Histone-lysine N-methyltransferase NSD2 (Homo sapiens, UniProt O96028); format: biochemical
T3 sequence (O96028 whole entry): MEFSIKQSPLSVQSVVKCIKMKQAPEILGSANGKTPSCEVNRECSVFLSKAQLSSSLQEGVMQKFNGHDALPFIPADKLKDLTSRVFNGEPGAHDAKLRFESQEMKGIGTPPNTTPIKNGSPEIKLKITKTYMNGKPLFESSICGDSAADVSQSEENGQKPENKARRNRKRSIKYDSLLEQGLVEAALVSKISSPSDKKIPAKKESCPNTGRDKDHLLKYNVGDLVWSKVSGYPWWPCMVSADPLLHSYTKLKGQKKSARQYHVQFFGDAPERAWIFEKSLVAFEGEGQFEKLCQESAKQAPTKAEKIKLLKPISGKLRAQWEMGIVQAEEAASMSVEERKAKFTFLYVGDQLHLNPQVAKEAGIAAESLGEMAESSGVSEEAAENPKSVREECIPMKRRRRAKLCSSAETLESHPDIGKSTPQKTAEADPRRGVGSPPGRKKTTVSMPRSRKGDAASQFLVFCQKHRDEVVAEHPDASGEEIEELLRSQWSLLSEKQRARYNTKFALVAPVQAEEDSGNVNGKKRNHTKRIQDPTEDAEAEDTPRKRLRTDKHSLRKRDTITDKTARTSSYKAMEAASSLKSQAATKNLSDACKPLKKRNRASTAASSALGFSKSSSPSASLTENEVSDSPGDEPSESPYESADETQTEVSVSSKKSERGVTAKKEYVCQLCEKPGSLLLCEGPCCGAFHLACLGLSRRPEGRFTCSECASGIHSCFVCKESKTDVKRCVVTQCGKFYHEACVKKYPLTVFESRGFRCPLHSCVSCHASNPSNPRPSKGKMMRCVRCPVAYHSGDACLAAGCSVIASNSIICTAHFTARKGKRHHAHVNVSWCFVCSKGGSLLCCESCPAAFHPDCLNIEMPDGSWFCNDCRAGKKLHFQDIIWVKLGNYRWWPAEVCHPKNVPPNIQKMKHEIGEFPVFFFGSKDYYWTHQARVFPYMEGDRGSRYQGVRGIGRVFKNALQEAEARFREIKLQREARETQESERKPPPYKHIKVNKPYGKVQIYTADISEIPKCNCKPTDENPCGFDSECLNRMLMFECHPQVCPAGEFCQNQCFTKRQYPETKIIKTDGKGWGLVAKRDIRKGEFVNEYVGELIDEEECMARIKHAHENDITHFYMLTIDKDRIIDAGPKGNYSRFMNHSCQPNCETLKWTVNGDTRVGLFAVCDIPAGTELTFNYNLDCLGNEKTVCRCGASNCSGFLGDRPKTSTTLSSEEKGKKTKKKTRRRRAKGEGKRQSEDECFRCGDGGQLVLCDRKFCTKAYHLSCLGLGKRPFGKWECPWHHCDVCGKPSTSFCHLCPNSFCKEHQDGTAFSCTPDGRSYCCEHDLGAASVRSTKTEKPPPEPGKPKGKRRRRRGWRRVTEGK

Cytochrome P450 2D6 = Cytochrome P450 2D6 (Homo sapiens, UniProt P10635);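 further: CYP2D6 member of a cytochrome P450 panel assay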
Chain of Cytochrome P450 2D6 (P10635 whole entry): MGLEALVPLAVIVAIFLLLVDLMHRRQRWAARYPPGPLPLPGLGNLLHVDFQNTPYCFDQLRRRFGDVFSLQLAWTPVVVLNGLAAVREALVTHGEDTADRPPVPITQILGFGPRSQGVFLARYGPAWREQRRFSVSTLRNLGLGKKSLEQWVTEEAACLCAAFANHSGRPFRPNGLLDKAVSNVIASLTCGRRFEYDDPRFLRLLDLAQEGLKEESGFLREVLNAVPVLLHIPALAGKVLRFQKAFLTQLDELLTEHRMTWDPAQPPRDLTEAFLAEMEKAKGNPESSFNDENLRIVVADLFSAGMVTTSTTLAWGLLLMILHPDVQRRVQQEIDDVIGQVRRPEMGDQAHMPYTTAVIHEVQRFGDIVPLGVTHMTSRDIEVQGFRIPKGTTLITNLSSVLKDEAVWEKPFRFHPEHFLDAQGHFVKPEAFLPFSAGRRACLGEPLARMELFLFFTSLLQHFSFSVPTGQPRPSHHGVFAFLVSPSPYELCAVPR

Cytochrome P450 2C9 [9] = molecular target: T4, Cytochrome P450 2C9 (Homo sapiens, UniProt P11712)
T4 sequence (P11712 whole entry): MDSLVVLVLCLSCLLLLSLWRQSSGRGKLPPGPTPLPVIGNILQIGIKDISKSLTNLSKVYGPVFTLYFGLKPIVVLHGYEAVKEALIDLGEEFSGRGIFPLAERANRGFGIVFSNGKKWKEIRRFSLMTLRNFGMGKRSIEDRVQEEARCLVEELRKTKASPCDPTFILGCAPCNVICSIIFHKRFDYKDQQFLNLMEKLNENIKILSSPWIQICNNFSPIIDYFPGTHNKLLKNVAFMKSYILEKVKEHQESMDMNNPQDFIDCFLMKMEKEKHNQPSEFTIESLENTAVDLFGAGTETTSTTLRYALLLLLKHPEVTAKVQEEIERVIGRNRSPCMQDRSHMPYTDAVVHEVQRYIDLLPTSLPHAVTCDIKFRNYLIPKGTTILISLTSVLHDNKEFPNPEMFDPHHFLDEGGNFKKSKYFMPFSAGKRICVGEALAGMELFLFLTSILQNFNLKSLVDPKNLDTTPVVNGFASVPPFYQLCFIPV

[10] = molecular target: T1, Short transient receptor potential channel 4; assay: block of DAMGO-driven TRPC4 calcium entry – cell-based, HEK293 TRPC4/mu-opioid, Fluo-4 calcium, dose response (AID 434942); format: functional;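 further: potency of inhibitors blocking the TRPC4 calcium response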
Cytochrome P450 3A4 [11] = molecular target: T2, Cytochrome P450 3A4
[12] = A cytotoxicity screen of small molecule inhibitors of the PhoP region in Salmonella typhi identified in the primary screen. [Related pubchem assays: 1850, 1864, 1985 ]; format: functional
[13] = molecular target: T5, Carboxy-terminal domain RNA polymerase II polypeptide A small phosphatase 1 (Homo sapiens, UniProt Q9GZU7); assay: CTDSP1 inhibitors, concentration-response, biochemical, absorbance readout, ultra-high-throughput screen actives (AID 540297); format: functional
T5 sequence (Q9GZU7 whole entry): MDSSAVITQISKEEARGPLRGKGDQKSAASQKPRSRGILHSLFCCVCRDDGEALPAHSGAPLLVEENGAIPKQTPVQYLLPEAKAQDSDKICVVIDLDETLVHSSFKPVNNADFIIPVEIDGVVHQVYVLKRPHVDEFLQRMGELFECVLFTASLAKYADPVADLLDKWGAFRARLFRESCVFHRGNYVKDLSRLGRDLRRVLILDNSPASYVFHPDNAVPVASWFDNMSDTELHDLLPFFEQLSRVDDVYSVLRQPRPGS

Cytochrome P450 2C19 = Cytochrome P450 2C19 (Homo sapiens, UniProt P33261); assay: Cytochrome panel assay with activity outcomes. Panel member name: p450-cyp2c19 Compounds with AC50 equal or less than 10 uM are considered active; format: functional
Chain of Cytochrome P450 2C19 (P33261 whole entry): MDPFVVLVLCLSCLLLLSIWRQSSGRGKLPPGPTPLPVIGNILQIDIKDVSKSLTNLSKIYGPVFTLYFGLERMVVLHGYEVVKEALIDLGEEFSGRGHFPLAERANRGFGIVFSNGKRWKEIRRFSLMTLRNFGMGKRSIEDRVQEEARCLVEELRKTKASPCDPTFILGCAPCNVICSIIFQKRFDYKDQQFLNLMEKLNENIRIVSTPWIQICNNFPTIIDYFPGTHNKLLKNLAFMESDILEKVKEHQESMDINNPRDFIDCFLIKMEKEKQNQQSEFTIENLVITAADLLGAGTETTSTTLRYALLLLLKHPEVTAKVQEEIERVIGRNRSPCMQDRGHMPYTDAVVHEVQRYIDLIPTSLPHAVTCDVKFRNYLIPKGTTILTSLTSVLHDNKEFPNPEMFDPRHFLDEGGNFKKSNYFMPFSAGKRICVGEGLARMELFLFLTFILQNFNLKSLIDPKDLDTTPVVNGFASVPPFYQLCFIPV

Cytochrome P450 2C9 [14] = molecular target: T4, Cytochrome P450 2C9; remark: listed apart in the source
cells [15] = format: functional, cell-based
cells [16] = format: functional, cell-based; remark: listed apart in the source

O=C(CCCc1ccccc1)NCCc1cnc[nH]1
EC50 [1]: 5.31 µM (active)

CCc1nnc(NC(=O)Cn2nc(-c3ccccc3OC)ccc2=O)s1
IC50 [2]: > 64 µM (inactive)

CCOc1ccc(OCc2cccc(C(=O)N3CCOCC3)c2)cc1
AC50 [3]: 22 µM (active)
AC50 [4]: 5.29 µM (active)
AC50 [5]: 2.64 µM (active)
AC50 [6]: 7.58 µM (active)

O=C(CSc1ncn(-c2ccccc2)n1)N1CCc2ccccc21
IC50 [2]: > 64 µM (inactive)

COC(=O)CNC(=O)COC(=O)c1cc(Cl)cc(Cl)c1N
EC50 (Kallikrein-7): > 69.5 µM (inactive)

COc1ccc(/C=C/C(O)=C2/C(=O)NC3(C)CC2c2ccccc2O3)c(OC)c1OC (stereo not drawn)
EC50 (Kallikrein-7): > 69.6 µM (inactive)

CC(=O)Oc1c2c(c3c(c1CC=C(C)C)O[C@@]14C(=CC5CC1C(C)(C)OC4(C/C=C(\C)C(=O)O)C5=O)C3=O)OC(C)(CCC=C(C)C)C=C2 (stereo partly drawn)
AC50 (Cytochrome P450 3A4 [7]): 39.8 µM (inconclusive)

COc1cc(C(=O)NNC(=O)C2CC=CCC2C(=O)O)cc(OC)c1OC (stereo not drawn)
IC50 [2]: > 64 µM (inactive)

Cc1cc2ccccn2c1C(=S)NC(=O)c1ccccc1
AC50 [8]: > 20 µM (inactive)

O=C(Nc1ccc2c(c1)OCCO2)C1CCN(C(=O)c2ccccc2)CC1
AC50 (Cytochrome P450 2D6): inconclusive

CCN(CC)CCn1c(-c2ccccc2)nc2c(NCCOC)nc(C)nc21
AC50 (Cytochrome P450 3A4 [7]): 12.6 µM (inconclusive)

COCCNc1ncncc1-c1c(C)noc1C
AC50 (Cytochrome P450 2C9 [9]): inconclusive

COc1ccc(Cl)cc1NC(=O)CNCC(c1ccccc1)N(C)C (stereo not drawn)
EC50 [10]: 0.421 µM (active)
EC50 [1]: 1.06 µM (active)

COc1cccc(-c2noc(C3CCCN(S(=O)(=O)c4cccc(Cl)c4C)C3)n2)c1 (stereo not drawn)
AC50 [3]: 10.9 µM (active)
AC50 [4]: 16.5 µM (active)
AC50 [5]: 6.22 µM (active)
AC50 [6]: 11.9 µM (active)

CSc1ccc(Cl)c(C(=O)NCCOc2cc(C)ccc2C(C)C)c1
AC50 (Cytochrome P450 2C9 [9]): inconclusive
AC50 (Cytochrome P450 3A4 [11]): 1 µM (inconclusive)

CCCCOc1ccc(OCCNC(=O)c2ccco2)cc1
EC50 [12]: > 50 µM (active)

O=C(Cn1cnc2ccccc21)Nc1ccc(SC(F)F)cc1
EC50 [12]: > 50 µM (active)

O=C(NC1CCC(O)CC1)c1cc(-c2ccco2)nc2ccccc12 (stereo not drawn)
EC50 (Kallikrein-7): > 69.5 µM (inactive)
IC50 [2]: 50 µM (inactive)
IC50 [13]: 5.9 µM (active)

O=C(C[n+]1ccccc1)c1ccc(-c2ccccc2)cc1
EC50 [12]: > 50 µM (active)

CC(=O)OC1CC2C(C)(C)C(O)C=C[C@@]2(C)C2CC[C@]3(C)C(=CC(=O)OC3c3ccoc3)[C@]12C (stereo partly drawn)
AC50 (Cytochrome P450 3A4 [7]): 15.8 µM (inconclusive)

CCNc1cc(O)ccc1C
AC50 (Cytochrome P450 3A4 [7]): 25.1 µM (inconclusive)

Cc1cc2ccccc2c(=O)n1CC(=O)NCCC1=CCCCC1
EC50 [12]: > 50 µM (active)

COCC(=O)Oc1c(Sc2ccccc2[N+](=O)[O-])c(C)nn1C(C)(C)C
IC50 [2]: 50 µM (inactive)

COc1ccc(-c2nc(NC(=O)c3ccccc3)sc2-c2ccc([N+](=O)[O-])cc2)cc1
AC50 (Cytochrome P450 2C19; read-out: AC50): 1.26 µM (inconclusive)
AC50 (Cytochrome P450 2C9 [14]): 2.82 µM (inconclusive)
AC50 (Cytochrome P450 2D6): inconclusive

COc1cc(C(=O)N2CCN(c3ncnc4sc(C)c(C)c34)CC2)cc(OC)c1OC
AC50 [3]: 6.73 µM (active)
AC50 [4]: 24.4 µM (active)
AC50 [5]: 33.7 µM (active)
AC50 [6]: 8.4 µM (active)

CC(COc1ccccc1)N1CCC(CO)(CCc2ccccc2)CC1 (stereo not drawn)
EC50 [1]: 0.267 µM (active)

Cc1noc(C)c1-c1cc(N2CCN(C)CC2)ncn1
AC50 (Cytochrome P450 2C9 [9]): inconclusive

O=C(O)CSSCC(=O)O
AC50 (Cytochrome P450 2C19): inconclusive
AC50 (Cytochrome P450 2D6): inconclusive

Nc1nc2ncccn2c1-c1ccc(F)c(F)c1
EC50 (Kallikrein-7): 9.39 µM (active)

C[C@@H]1CNC(=O)c2c(C(=O)N3CCN(c4ccccc4)CC3)ncn21
AC50 [3]: 14.8 µM (active)
AC50 [4]: 10.4 µM (active)
AC50 [5]: 7.81 µM (active)
AC50 [6]: 19.7 µM (active)

COc1cc(/C=N/CC2OCCc3ccccc32)cc(OC)c1 (stereo not drawn)
IC50 (cells [15]): > 29.9 µM (inactive)
EC50 (cells [16]): > 29.9 µM (inactive)

C[C@@H](NCc1cc(Br)cc2[nH]c(=O)c(=O)[nH]c12)P(=O)(O)O
AC50 (Cytochrome P450 2C9 [9]): inconclusive

C=CCN=C=S [ALLYL ISOTHIOCYANATE]
AC50 (Cytochrome P450 3A4 [7]): 39.8 µM (inconclusive)
